Laboratory results from patent US20220218667A1, “DUAL INHIBITORS OF SOLUBLE EPOXIDE HYDROLASE AND METHODS OF USE THEREOF” (OROX Biosciences, Inc., priority 2019, published 2022).
Several values for one entry are separate records, joined by “and”; a condition that tells them apart may be missing. Identical values can stand only once. Entries after “also recorded” stand apart in the source; their conditions may differ. Like-named read-outs stand apart in the source and are kept apart here.

Legend:
[1] = tested on: C57B/L6 mice exposed to bleomycin; test: Example 1: prophylactic treatment of mice exposed to bleomycin (IPF model); type: in vivo, mouse
Description: 4-(5-phenyl-3-{3-[3-(4-trifluoromethyl-phenyl)-ureido]-propyl}-pyrazol-1-yl)-benzenesulfonamide (PTUPB) [termed OX1] was compared to Pirfenidone, Nintedanib, and GSK225629415 [termed OX3] for treatment of IPF using an established model for IPF treating, which is prophylactic treatment of mice exposed to the chemotherapeutic agent bleomycin. […] Pirfenidone and Nintedanib are standard of care for the treatment of idiopathic pulmonary fibrosis and served as reference compounds in the experiment.
C57B/L6 mice were used in the experiments. When used, Bleomycin was administered intra-oropharyngeally, 1.5 U/kg, QD per established protocol. The test articles were dosed via oral gavage in 200 μL/day vehicle. The doses and formulations of test articles were selected based on the literature describing the lowest doses capable of eliciting pharmacological action.
Animals were dosed with the test articles (or vehicle) starting at day −1 to day 20. On day 1, daily doses of Bleomycin commenced in all but group 1 (negative control) which received the vehicle. On day 21, all animals were weighed and sacrificed. After lungs and bronco-alveolar lavage fluid (BALF) were harvested, they were prepared according to standard procedures for further analysis and histology. All animals were assessed twice a week for body weight and overall appearance. Efficacy endpoints measured in this study included lung weight, total leukocytes, and histology as determined by Mason's Trichrome stain and scored using a modified Ashcroft score.
The following parameters were measured in bronchoalveolar fluid (BALF): 1) soluble collagen and 2) differential leukocyte counts for different leukocyte populations.
After weighing and removal of BALF from the lungs, they were inflated and fixed using 10% neutral buffered formalin for histopathology analysis. Fifty-four formalin-fixed lung samples from mice were submitted to HistoTox Labs and were processed routinely. Two slides from each block were sectioned and stained with hematoxylin and eosin (H&E) or Masson's trichrome. Glass slides were evaluated with light microscopy by a board-certified veterinary pathologist. Lung sections were scored according to the modified Ashcroft scale.

human sEH = target: T1, human sEH (Homo sapiens, UniProt P34913); test: sEH inhibition IC50, fluorescent-based assay with purified recombinant sEH; type: biochemical
T1 sequence (P34913 1-555): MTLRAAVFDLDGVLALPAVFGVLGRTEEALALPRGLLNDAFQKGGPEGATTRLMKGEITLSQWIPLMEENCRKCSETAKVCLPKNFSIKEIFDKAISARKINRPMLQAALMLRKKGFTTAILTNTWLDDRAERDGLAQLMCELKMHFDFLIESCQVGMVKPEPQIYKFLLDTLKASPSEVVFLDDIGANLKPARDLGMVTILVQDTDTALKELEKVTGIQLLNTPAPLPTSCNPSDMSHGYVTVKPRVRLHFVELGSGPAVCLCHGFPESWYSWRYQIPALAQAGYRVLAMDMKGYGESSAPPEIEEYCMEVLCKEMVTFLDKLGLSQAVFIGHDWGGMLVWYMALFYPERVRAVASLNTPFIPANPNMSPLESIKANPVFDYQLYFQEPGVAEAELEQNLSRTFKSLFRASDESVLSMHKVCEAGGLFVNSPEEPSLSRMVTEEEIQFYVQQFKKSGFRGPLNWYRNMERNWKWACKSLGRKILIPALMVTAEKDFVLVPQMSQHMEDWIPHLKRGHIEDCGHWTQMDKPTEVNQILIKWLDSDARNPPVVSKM
Experimental: sEH inhibition IC50 values for the compounds presented herein can be assayed by a recombinant affinity assay using purified sEHs, from human, mouse or rat, in a fluorescent-based assay. In such an assay, enzymes, e.g., ˜1 nM human sEH, are incubated with a potential inhibitors for 5 min in 25 mM Bis-Tris/HCl buffer (200 μL; pH 7.0) at 30° C. before a substrate, e.g., cyano(2-methoxynaphthalen-6-yl)methyl trans-(3-phenyl-oxyran-2-yl)methyl carbonate, (CMNPC) is added ([S]final=5 μM).

[2] = tested on: Human primary lung fibroblasts from IPF donors; test: Fibroblast-to-Myofibroblast Transition (FMT) assay; type: cell-based; conditions: for IC50: Homo sapiens, Primary lung fibroblast, 1.25 ng/ml TGF-b1
Experimental: OX1 was evaluated in a primary cell-based Fibroblast-to-Myofibroblast Transition (FMT) assay; an in vitro assay relevant to idiopathic pulmonary fibrosis (TPF). Human primary lung fibroblasts from three (3) IPF donors (IPF06, IPF07, and IPF08) were triggered using 1.25 ng/ml TGF-b1 to induce FMT, one hour after application of compounds. OX1 and Nintedanib (approved drug for TPF) were applied in […] in semi-log dilutions with the top concentration at […] to construct eight (8)-point concentration response curve (CRC) in biological duplicates (ie. on two (2) different cell plates at on (1) occasion). SB525334 was used at […] in 0.1% DMSO as a positive validation control. The readouts at 72 hours were high content analysis (HCA) for aSMA expression and DAPI staining for nuclear count as measurement of potential cytotoxic effects.

[3] = day 21, OX1, OX3, Nintedanib 30 mg/kg QD, Pirfenidone 100 mg/kg BID, oral
[4] = day 21, compared to vehicle (Group 2), OX1, OX3, Nintedanib 30 mg/kg QD, Pirfenidone 100 mg/kg BID

NS(=O)(=O)c1ccc(-n2nc(CCCNC(=O)Nc3ccc(C(F)(F)F)cc3)cc2-c2ccccc2)cc1 [OX1, 4-(5-phenyl-3-{3-[3-(4-trifluoromethyl-phenyl)-ureido]-propyl}-pyrazol-1-yl)-benzenesulfonamide]
body weight change at end of experiment compared to starting point ([1]; bleomycin mice, OX1 30 mg/kg QD oral gavage day -1 to 20, day 21 vs day -1, 30 mg/kg): −1% and ~1% | body weight course over 21 days ([1]; bleomycin mice, oral gavage day -1 to 20, OX1, OX3, Nintedanib 30 mg/kg QD, Pirfenidone 100 mg/kg BID): lost the least weight | lung weight (indicator of fluid accumulation and inflammation) ([1]; day 21, OX1 30 mg/kg QD oral): performed best in reducing bronchoalveolar fluid (BALF) accumulation and inflammation | soluble collagen in BALF ([1]; day 21, OX1 30 mg/kg QD oral, 30 mg/kg): most effective in controlling the overall collagen production; also recorded: most effective test article in lowering production of soluble collagen | neutrophil migration into BALF [1, 3]: effective | number of lymphocytes in BALF [1, 3]: most effective at maintaining a large number of lymphocytes | total cell (leukocyte) count in BALF [1, 3]: did not demonstrate the same level of reduction | increased collagen (fibrosis) score, trichrome [1, 4]: lowest tissue deposition of collagen; also recorded: markedly reduced | mean Ashcroft score (lung histology) [1, 4]: markedly reduced | mean score for mixed peribronchiolar/perivascular inflammation [1, 4]: lower | IC50 (human sEH): 0.002 µM | Loss of Nuclei [2]: Yes | IC50 ([2]; donor IPF06, readout at 72 hours, read-out: αSMA inhibition IC50 (μM), Patient Identifier IPF06): 1 µM | IC50 ([2]; donor IPF07, readout at 72 hours, read-out: αSMA inhibition IC50 (μM), Patient Identifier IPF07): 1.3 µM | IC50 ([2]; donor IPF08, readout at 72 hours, read-out: αSMA inhibition IC50 (μM), Patient Identifier IPF08): 1 µM | IC50 ([2]; mean of three IPF donors, 72 hours, read-out: αSMA inhibition IC50 (μM), Mean): 1.1 µM
